For orientation: IC50 means the point on the concentration scale where inhibition reaches its midpoint.

Converted amounts (≈) assume the structure as drawn. The source made the active and inactive calls. The calls are words filed in the database; no cut-off is given here.

Data on 24 compounds can be found in ChEMBL document CHEMBL5108066, “Structure-Guided Discovery of Potent Antifungals that Prevent Ras Signaling by Inhibiting Protein Farnesyltransferase” (J Med Chem, 2022).

A short description of series [1]: Inhibition of Cryptococcus neoformans farnesyltransferase assessed as inhibition of farnesylation of dansyl-GCVVM peptide using fluorescent peptide dansyl-GCVVM and 1uM farnesyl diphosphate as substrate by fluorescence assay.
Series [2] deals with Cryptococcus neoformans. Briefly: Antifungal activity against Cryptococcus neoformans H99 assessed as decrease in cell viability by measuring metabolic activity incubated for 72 hrs by alamar blue staining based broth dilution method. In kind it is functional.
For series [3], the system named is Cryptococcus neoformans. Nature of the series: Uncompetitive type inhibition of Cryptococcus neoformans farnesyltransferase assessed as inhibition constant using farnesyl diphosphate and fluorescent peptide dansyl-GCVVM as substrate by steady-state kinetic analysis.
Series [4] concerns Cryptococcus neoformans. Briefly: Uncompetitive type inhibition of Cryptococcus neoformans farnesyltransferase assessed as inhibition constant using FPP in presence of 10 mM phosphate and fluorescent peptide dansyl-GCVVM as substrate by steady-state kinetic analysis.
Series [5] concerns Schizosaccharomyces pombe. Nature of the series: Antifungal activity against Schizosaccharomyces pombe efflux-defective strain MJ-1682 assessed as inhibition of fungal growth by broth microdilution method. In kind it is functional. In general terms: Dilution methods test growth across graded concentrations, often in twofold steps.
A short description of series [6]: Cytotoxicity against mouse J774.A1 cells assessed as inhibition of cell viability measured at 24 hrs by AlamarBlue staining based cell viability assay. The series is classed as toxicity. To be noted: read-out: MIC.
For series [7], the system named is Cryptococcus neoformans. Nature of the series: Fungicidal activity against Cryptococcus neoformans H99 assessed as reduction in colonies incubated for 48 hrs by disk diffusion method. In kind it is functional, organism-based. (Agar diffusion results depend on both activity and mobility in agar.)
Series [8] is described as follows: Inhibition of rat farnesyltransferase assessed as inhibition of farnesylation of dansyl-GCVVM peptide using fluorescent peptide dansyl-GCVVM and 1uM farnesyl diphosphate as substrate by fluorescence assay.
Series [9] relates to Cryptococcus neoformans. Briefly: Inhibition of biofilm formation in Cryptococcus neoformans H99 incubated for 3 days by alamar blue staining based microtiter plate reader assay. The series is classed as functional. To be noted: H99, 72 h, time 3 day.

Take `CCCC[C@H]1CN(c2cccc(OC(F)(F)F)c2)C(=O)CN1Cc1cncn1Cc1ccc(C#N)cc1`: the IC50 in series [1] came out at 340 nM. Besides, the MIC in series [2] came out at 12 µM (≈ 6.14 µg/mL).

With `CCCC[C@H]1CN(c2cccc(C)c2C)C(=O)CN1Cc1cncn1Cc1ccc(C#N)cc1`, in series [1], the IC50 was 2200 nM. Further, the MIC in series [2] is 50 µM (≈ 22.8 µg/mL).

`N#Cc1ccc(Cn2cncc2CN2CCN(c3cccc(OC(F)(F)F)c3)C(=O)C2)cc1F`: the IC50 in series [1] came out at 120 nM. For the same compound, the MIC in series [2] was 50 µM (≈ 23.7 µg/mL).

Take `CCCC[C@H]1CN(c2cccc(OC(F)(F)F)c2)C(=O)CN1Cc1cncn1Cc1ccc(F)cc1`: in series [1], the IC50 came out at 710 nM. Moreover, the MIC in series [2] was 12 µM (≈ 6.05 µg/mL).

`CCC[C@H]1CN(c2cccc(OC(F)(F)F)c2)C(=O)CN1Cc1cncn1Cc1ccc(Br)cc1`: in series [1], the IC50 stood at 1100 nM. Also, the MIC in series [2] turned out to be 6 µM (≈ 3.31 µg/mL).

In the case of `CCCC[C@H]1CN(c2cccc(OC(F)(F)F)c2)C(=O)CN1Cc1cncn1Cc1ccc(C#N)c(F)c1`, the results for the K in series [3] and in series [4] were 4.9 nM and 4.2 nM, respectively. In addition, the IC50 in series [1] was found to be 40 nM. Besides, in series [2], the MIC amounted to 50 µM (≈ 26.5 µg/mL).

`CCCC[C@H]1CN(c2cccc(OC(F)(F)F)c2)C(=O)CN1Cc1cncn1Cc1ccc(F)c(C#N)c1`: the IC50 in series [1] was 180 nM. The MIC in [2] is 50 µM (≈ 26.5 µg/mL).

For the compound `CCCC[C@H]1CN(c2cccc(Cl)c2)C(=O)CN1Cc1cncn1Cc1ccc(Br)cc1`, the IC50 in series [1] stood at 1100 nM. Moreover, the MIC in series [2] was found to be 12 µM (≈ 6.19 µg/mL).

In the case of `CCCC[C@H]1CN(c2cccc(OC(F)(F)F)c2)C(=O)CN1Cc1cncn1Cc1cccc(C#N)c1`, the IC50 in series [1] came to 740 nM. In addition, the MIC in [2] was found to be 50 µM (≈ 25.6 µg/mL).

Consider `N#Cc1cc(Cn2cncc2CN2CCN(c3cccc(OC(F)(F)F)c3)C(=O)C2)ccc1Oc1ccccc1`, for which the IC50 in series [1] worked out at 320 nM. The MIC in series [2] is 50 µM (≈ 27.4 µg/mL).

As to `CCCC[C@H]1CN(c2cccc(OC(F)(F)F)c2)C(=O)CN1Cc1cncn1Cc1ccc(C(F)(F)F)cc1`, the IC50 in series [1] was found to be 280 nM. The MIC in series [2] was 6 µM (≈ 3.33 µg/mL).

For `CCCC[C@H]1CN(c2cccc(OC(F)(F)F)c2)C(=O)CN1Cc1cncn1Cc1ccc(Br)cc1`, the MIC in series [5] was 1.5 µM (≈ 0.848 µg/mL); in [9], 12.5 µM (≈ 7.07 µg/mL); in [2], 3 µM (≈ 1.7 µg/mL). For the same compound, the MCC at 24 h in [6] is 300 µM. For the same compound, the result in series [7] was Active. Also, the K is 750 nM in series [3] and 500 nM in series [4]. Moreover, the IC50 in series [8] was found to be 2 nM; in series [1], 190 nM.

`CCCC[C@H]1CN(c2cccc(OC(F)(F)F)c2)C(=O)CN1Cc1cncn1Cc1ccc(C#N)c(Oc2ccccc2)c1`: the IC50 in series [1] was 150 nM. Moreover, the MIC in series [2] is 50 µM (≈ 30.2 µg/mL).

Consider `CCCCC[C@H]1CN(c2cccc(OC(F)(F)F)c2)C(=O)CN1Cc1cncn1Cc1ccc(Br)cc1`, for which the IC50 in series [1] is 160 nM. The MIC in [2] is 3 µM (≈ 1.74 µg/mL).

`N#Cc1ccc(Cn2cncc2CN2CCN(c3cccc(OC(F)(F)F)c3)C(=O)C2)cc1Oc1ccccc1`: in series [1], the IC50 worked out at 2600 nM. Also, the MIC in series [2] is 50 µM (≈ 27.4 µg/mL).

As to `CCCC[C@H]1CN(c2cccc(Cl)c2)C(=O)CN1Cc1cncn1Cc1ccc(Cl)cc1`, in series [1], the IC50 amounted to 1600 nM. The MIC in series [2] worked out at 25 µM (≈ 11.8 µg/mL).

Turning to `N#Cc1ccc(Cn2cncc2CN2CCN(c3cccc(Cl)c3)C(=O)C2)cc1` [L-778123 FREE BASE], the IC50 in series [8] was found to be 60 nM. The MIC in series [2] stood at 100 µM (≈ 40.6 µg/mL).

Turning to `CCCC[C@H]1CN(c2cccc(Cl)c2)C(=O)CN1Cc1cncn1Cc1ccc(C#N)cc1`, the IC50 in series [1] worked out at 100 nM. For the same compound, in series [2], the MIC was found to be 50 µM (≈ 23.1 µg/mL).

Consider `N#Cc1ccc(Cn2cncc2CN2CCN(c3cccc(OC(F)(F)F)c3)C(=O)C2)cc1`, for which the IC50 in series [1] was 2700 nM. In addition, the MIC in series [2] is 50 µM (≈ 22.8 µg/mL).

Regarding `CCCC[C@H]1CN(c2ccccc2)C(=O)CN1Cc1cncn1Cc1ccc(Br)cc1`, the IC50 in series [1] was found to be 920 nM. In addition, the MIC in series [2] amounted to 50 µM (≈ 24.1 µg/mL).

Regarding `N#Cc1cc(Cn2cncc2CN2CCN(c3cccc(OC(F)(F)F)c3)C(=O)C2)ccc1F`, the IC50 in series [1] worked out at 550 nM. For the same compound, in series [2], the MIC came to 50 µM (≈ 23.7 µg/mL).

In the case of `CCCC[C@H]1CN(c2cccc(OC(F)(F)F)c2)C(=O)CN1Cc1cncn1Cc1ccccc1`, in series [1], the IC50 turned out to be 1900 nM. Also, the MIC in series [2] stood at 25 µM (≈ 12.2 µg/mL).

Take `CCCC[C@H]1CN(c2cccc(OC(F)(F)F)c2)C(=O)CN1Cc1cncn1Cc1ccc(Oc2ccccc2)c(C#N)c1`: the IC50 in [1] is 210 nM. For the same compound, the MIC in [2] amounted to 50 µM (≈ 30.2 µg/mL).

Turning to `CCCC[C@H]1CN(c2cccc(OC(F)(F)F)c2)C(=O)CN1Cc1cncn1Cc1ccc(Cl)cc1`, the IC50 in series [1] turned out to be 260 nM. For the same compound, the MIC in series [2] is 6 µM (≈ 3.13 µg/mL).
